Test results: US20230393140A1, “BINDING ASSAYS INVOLVING A PLURALITY OF SYNTHETIC COMPOUNDS, TARGETS, AND COUNTER TARGETS” (SRI International, priority 2020, published 2023)
Read-outs that look alike come from different tables or passages of the source. Marks after values point to notes of the source that are not given here. Numbered stars: 1 amine (or outer) side, 2 acyl side, 3 side chain; on linkers, the order of the positions; unused ones are H or OH. Square brackets hold non-standard residues; d marks the D form. Peptide text beside a SMILES is read from it. * marks the point of attachment. 5FAM = O=C1OC2(c3ccc(O)cc3Oc3cc(O)ccc32)c2ccc(C(=O)*)cc21; NHCH2C6H4(4-CH2CONH2) = NC(=O)Cc1ccc(CN*)cc1; X1 = O=C(Cc1ccc(CN[*:1])cc1)[*:2]

Tests used:
K-Ras = biological target: T1, K-Ras (Homo sapiens, UniProt P01116, G12V); test: MST binding affinity of resynthesized NNP hits to K-Ras
T1 construct: purchased Cytoskeleton Inc. CS-RS04
How it was run: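 K-Ras G12V was GTP-loaded (EDTA exchange, 750 μM GTP, 2 h at 30° C, then MgCl2) and labeled with maleimide-647 dye. MST was run at room temperature in 20 mM HEPES pH 7.4, 150 mM NaCl, 10 mM MgCl2, 0.05% Tween-20, 1 mM DTT. Incubations lasted 15, 30 and 45 min; triplicate data fitted for affinity.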

cRaf/K-Ras (G12V) PPI = biological target: T2, cRaf/K-Ras (G12V) PPI (Homo sapiens, UniProt P01116, G12V); test: K-Ras-cRaf HTRF-based PPI profiling; type: biochemical; conditions: for blank corrected HTRF: raw data, compounds without fluorescein;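 on blank corrected HTRF: background is the signal of wells with all components except cRaf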
T2 construct: b-Kras G12V (GppNHp) (aa 2-169); biotin (b-
Protocol: In some experimental embodiments, a buffer was added to the assay wells which included […] HEPES pH 7.4, 150 mM NaCl, 5 mM MgCl2, 1 mM DTT, 0.005% NP40, and 1% DMSO. 5 uL of 3×K-Ras protein was then added to the assay wells, followed by the synthetic compounds which were added using acoustic technology (ECHO, Labcyte) followed by thirty minutes incubation at room temperature. Afterwards, 5 uL of 3×cRaf protein was added to the assay wells and 5 uL of detection mix was then added to the assay wells after 30 minutes. The detection mix included Mab anti-GST-Tb cryptate (Cisbio 61GSTTLB) and streptavidin-XL665 (Ex/Em=(337/665; 620) in PHERAstar (BMG Labtech)). HTRF signal was measured […] later.
The data includes raw data (signal-background without cRaf protein but with all other component), % binding (relative to DMSO controls), and curve fits. Curve fits were performed when the activities at the highest concentration of the synthetic compounds were less than 65%. Tables 18A-18B below includes the raw data (e.g., blank corrected HTRF) and Tables 19A-19B includes the % binding.

biotinylated GST = test: Interference check with biotinylated GST and detection mix
Text: Table 20 below provides an interference check on the synthetic compounds using biotinylated GST, which was used with the detection mix to check for compound effect on fluorescence.

TNFα = TNFα (Homo sapiens, UniProt P01375); test: MST binding affinity of resynthesized NNP hits to TNFα; parameters: purchased R&D Systems, Inc. 210-TA/CF; conditions: read-out: KD (nM) [95% conf. int], NNP2 library hit, target TNFα, one-site binding model
Protocol: Hit binding affinity to various targets were determined using Microscale Thermophoresis (MST). MST experiments were performed on a Monolith NT.115pico (NanoTemper Technologies GmbH, Munich, Germany). Measurements were performed at room temperature, in triplicate with incubation periods of 15, 30 and 45 minutes. […] Targets were labeled using Nanotemper Monolith 2nd Generation Protein Labeling Kits. RED-MALEIMIDE (Maleimide-647-dye) labeling kit was used for K-Ras and RED-NHS (NHS-647-dye) labeling kit was used for IL-6, IL-6R, TNFα and ASGPR. The buffer for the ASGPR contained 20 mM HEPES pH 7.4, 150 mM NaCl, 10 mM MgCl2, 2 mM CaCl2, 0.05% Pluronic F-127, and 1 mM DTT; for IL-6 contained 20 mM HEPES pH 7.4, 150 mM KCl, 10 mM MgCl2, and 0.1% Pluronic F-127; for the soluble IL-6 receptor 20 mM HEPES pH 7.4, 150 mM NaCl, 10 mM MgCl2, and 0.05% Tween-20; for K-Ras 20 mM HEPES pH 7.4, 150 mM NaCl, 10 mM MgCl2, 0.05% Tween-20 and 1 mM DTT; for TNFα 10 mM HEPES pH 7.4, 150 mM NaCl, 10 mM MgCl2, 0.05% Polysorbate-20. Triplicate data was analyzed using MO.AffinityAnalysis software (NanoTemper Technologies GmbH).

TNFα, sequence (P01375 77-233 limits assumed): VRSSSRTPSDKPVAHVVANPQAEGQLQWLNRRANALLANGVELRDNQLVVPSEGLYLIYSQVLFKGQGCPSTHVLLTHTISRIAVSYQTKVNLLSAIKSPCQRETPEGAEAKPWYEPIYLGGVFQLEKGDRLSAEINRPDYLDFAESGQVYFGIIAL

CC(C)C[C@H](NC(=O)[C@@H](CCC(=O)O)NC(=O)[C@H]1CCCN1C(=O)[C@@H](Cc1ccccc1)NC(=O)[C@@H](CO)NC(=O)c1ccc2c(c1)C(=O)OC21c2ccc(O)cc2Oc2cc(O)ccc21)C(=O)NCc1ccc(CC(=O)NCC(=O)N[C@@H](C(=O)N2CCC[C@@H]2C(=O)N[C@H](CCCNC(=N)N)C(=O)N[C@@H](C)C(=O)NCc2ccc(CC(=O)N3CCC[C@@H]3C(=O)N[C@H](CO)C(=O)N[C@H](CCC(=O)O)C(=O)N[C@H](CCCNC(=N)N)C(=O)NCC(=O)NCc3ccc(CC(=O)N4CCC[C@@H]4C(=O)N[C@H](CCCCN)C(=O)N[C@H](Cc4ccc(O)cc4)C(=O)N[C@H](CCCNC(=N)N)C(=O)N[C@@H](Cc4ccccc4)C(=O)NCc4ccc(CC(=O)N[C@H](CCCNC(=N)N)C(=O)N[C@H](Cc5ccccc5)C(=O)N5CCC[C@@H]5C(=O)N[C@@H](C(=O)NCC(=O)NCc5ccc(CC(=O)NCC(=O)N[C@H](Cc6c[nH]c7ccccc67)C(=O)N[C@H](Cc6c[nH]cn6)C(=O)N[C@H](CCCNC(=N)N)C(=O)N[C@@H](C)C(=O)NCc6ccc(CC(N)=O)cc6)cc5)C(C)C)cc4)cc3)cc2)C(C)C)cc1 [KRAS-1-9] (5FAM-[dS][dF][dP][dE]L[X1]G[dV][dP][dR]A[X1][dP][dS][dE][dR]G[X1][dP][dK][dY][dR]F[X1][dR][dF][dP][dV]G[X1]G[dW][dH][dR]A-{NHCH2C6H4(4-CH2CONH2)})
Kd (K-Ras; K-Ras, compound with fluorescein on N-term, read-out: KD[nM] in MST (with fluorescein on N-term)): 32 nM | Kd (K-Ras; read-out: KD (nM) [95% conf. int], MST, NNP1 library hit, target K-Ras, one-site binding model): 32 nM | HillSlope (cRaf/K-Ras (G12V) PPI; curve fit of % binding, K-Ras G12V 30 nM, GST-cRaf 10 nM): −0.9902 | blank corrected HTRF (cRaf/K-Ras (G12V) PPI; conc. 1.00E−05): 4707 | blank corrected HTRF (cRaf/K-Ras (G12V) PPI; conc. 1.11E−06): 7790 | blank corrected HTRF (cRaf/K-Ras (G12V) PPI; conc. 1.37E−08): 12329 | blank corrected HTRF (cRaf/K-Ras (G12V) PPI; conc. 3.33E−06): 3269 | blank corrected HTRF (cRaf/K-Ras (G12V) PPI; conc. 3.70E−07): 12513 | blank corrected HTRF (cRaf/K-Ras (G12V) PPI; conc. 4.12E−08): 14333 | blank corrected HTRF (cRaf/K-Ras (G12V) PPI; conc. 4.57E−09): 13688 | % signal compared to DMSO (biotinylated GST; assay conc. 0.000508053 μM): 99.72% | % signal compared to DMSO (biotinylated GST; assay conc. 0.001524158 μM): 102.8% | % signal compared to DMSO (biotinylated GST; assay conc. 0.004572474 μM): 100.2% | % signal compared to DMSO (biotinylated GST; assay conc. 0.013717421 μM): 101.4% | % signal compared to DMSO (biotinylated GST; assay conc. 0.041152263 μM): 102.8% | % signal compared to DMSO (biotinylated GST; assay conc. 0.12345679 μM): 101.5% | % signal compared to DMSO (biotinylated GST; assay conc. 0.37037037 μM): 99.8% | % signal compared to DMSO (biotinylated GST; assay conc. 1.111111111 μM): 92.41% | % signal compared to DMSO (biotinylated GST; assay conc. 3.333333333 μM): 69.59% | % signal compared to DMSO (biotinylated GST; assay conc. 10 μM): 53.69* %

CC(C)C[C@H](NC(=O)[C@@H](CCCCN)NC(=O)[C@@H](Cc1ccccc1)NC(=O)Cc1ccc(CNC(=O)[C@H](CC(C)C)NC(=O)[C@@H](CCCCN)NC(=O)[C@@H](CC(C)C)NC(=O)Cc2ccc(CNC(=O)[C@H](Cc3ccccc3)NC(=O)[C@@H](C)NC(=O)[C@@H](C)NC(=O)Cc3ccc(CNC(=O)[C@H](CC(C)C)NC(=O)[C@H](NC(=O)[C@@H](CCCCN)NC(=O)c4ccc5c(c4)C(=O)OC54c5ccc(O)cc5Oc5cc(O)ccc54)C(C)C)cc3)cc2)cc1)C(=O)NCc1ccc(CC(=O)N[C@H](Cc2c[nH]c3ccccc23)C(=O)N[C@H](CCCNC(=N)N)C(=O)N[C@H](C(=O)NCc2ccc(CC(=O)N[C@H](CO)C(=O)N[C@H](CO)C(=O)N[C@@H](Cc3ccccc3)C(=O)NCc3ccc(CC(=O)N[C@H](Cc4c[nH]cn4)C(=O)N[C@H](CCC(=O)O)C(=O)N[C@@H](CC(C)C)C(=O)NCc4ccc(CC(=O)N[C@H](Cc5ccccc5)C(=O)N[C@H](CCCCN)C(=O)N[C@@H](Cc5ccccc5)C(=O)NCc5ccc(CC(=O)N[C@@H](C(=O)N[C@H](CCC(=O)O)C(=O)N[C@@H](CC(C)C)C(=O)NCc6ccc(CC(N)=O)cc6)[C@H](C)O)cc5)cc4)cc3)cc2)C(C)C)cc1 [TNF-31-2] (5FAM-[dK][dV]L[X1][dA][dA]F[X1][dL][dK]L[X1][dF][dK]L[X1][dW][dR]V[X1][dS][dS]F[X1][dH][dE]L[X1][dF][dK]F[X1][dT][dE]L-{NHCH2C6H4(4-CH2CONH2)})
Kd (TNFα): 23 nM

CC(C)C[C@H](NC(=O)[C@@H](CCCNC(=N)N)NC(=O)[C@@H](Cc1c[nH]c2ccccc12)NC(=O)Cc1ccc(CNC(=O)[C@H](CC(C)C)NC(=O)[C@@H](CCCCN)NC(=O)[C@@H](CC(C)C)NC(=O)Cc2ccc(CNC(=O)[C@H](CC(C)C)NC(=O)[C@@H](CCCNC(=N)N)NC(=O)[C@@H](CC(C)C)NC(=O)Cc3ccc(CNC(=O)[C@H](Cc4ccccc4)NC(=O)[C@@H](CC(C)C)NC(=O)[C@H](NC(=O)c4ccc5c(c4)C(=O)OC54c5ccc(O)cc5Oc5cc(O)ccc54)[C@H](C)O)cc3)cc2)cc1)C(=O)NCc1ccc(CC(=O)N[C@H](C)C(=O)N[C@H](CCCCN)C(=O)N[C@@H](Cc2ccccc2)C(=O)NCc2ccc(CC(=O)N[C@H](CCC(=O)O)C(=O)N[C@H](CO)C(=O)N[C@H](C(=O)NCc3ccc(CC(=O)N4CCC[C@@H]4C(=O)N[C@@H](C(=O)NCC(=O)NCc4ccc(CC(=O)N[C@H](CCC(=O)O)C(=O)N[C@H](Cc5ccc(O)cc5)C(=O)N[C@@H](Cc5ccccc5)C(=O)NCc5ccc(CC(=O)N[C@H](Cc6ccc(O)cc6)C(=O)N[C@H](CCCNC(=N)N)C(=O)N[C@@H](Cc6ccccc6)C(=O)NCc6ccc(CC(N)=O)cc6)cc5)cc4)C(C)C)cc3)C(C)C)cc2)cc1 [TNF-31-4] (5FAM-[dT][dL]F[X1][dL][dR]L[X1][dL][dK]L[X1][dW][dR]L[X1][dA][dK]F[X1][dE][dS]V[X1][dP][dV]G[X1][dE][dY]F[X1][dY][dR]F-{NHCH2C6H4(4-CH2CONH2)})
Kd (TNFα): 33 nM

CC(C)C[C@H](NC(=O)[C@@H](CCCNC(=N)N)NC(=O)CNC(=O)Cc1ccc(CNC(=O)[C@H](CC(C)C)NC(=O)[C@H](NC(=O)[C@@H](CCCCN)NC(=O)c2ccc3c(c2)C(=O)OC32c3ccc(O)cc3Oc3cc(O)ccc32)C(C)C)cc1)C(=O)NCc1ccc(CC(=O)N[C@H](Cc2ccccc2)C(=O)N[C@H](CCC(=O)O)C(=O)N[C@H](C(=O)NCc2ccc(CC(=O)N3CCC[C@@H]3C(=O)N[C@H](CCCNC(=N)N)C(=O)N[C@H](C(=O)NCc3ccc(CC(=O)N[C@H](C)C(=O)N[C@H](CCCCN)C(=O)N[C@@H](Cc4ccccc4)C(=O)NCc4ccc(CC(=O)N[C@H](CCC(=O)O)C(=O)N[C@H](CO)C(=O)N[C@H](C(=O)NCc5ccc(CC(=O)N6CCC[C@@H]6C(=O)N[C@@H](C(=O)NCC(=O)NCc6ccc(CC(=O)N[C@@H](C(=O)N[C@H](Cc7c[nH]cn7)C(=O)N[C@@H](CC(C)C)C(=O)NCc7ccc(CC(=O)N[C@H](Cc8ccc(O)cc8)C(=O)N[C@H](CCCNC(=N)N)C(=O)N[C@@H](Cc8ccccc8)C(=O)NCc8ccc(CC(N)=O)cc8)cc7)[C@H](C)O)cc6)C(C)C)cc5)C(C)C)cc4)cc3)C(C)C)cc2)C(C)C)cc1 [TNF-31-5] (5FAM-[dK][dV]L[X1]G[dR]L[X1][dF][dE]V[X1][dP][dR]V[X1][dA][dK]F[X1][dE][dS]V[X1][dP][dV]G[X1][dT][dH]L[X1][dY][dR]F-{NHCH2C6H4(4-CH2CONH2)})
Kd (TNFα): 24 nM
